Earlier results in US6048869A, “Tricyclic compounds” (Merck & Co., Inc., priority 1999, dated 2000).

Columns and labels:
5α-reductase 1 = settings: isozyme predominating in sebaceous glands of facial and skin tissue; Harris et al. 1992

Compound: CC(C)(C)NC(=O)[C@H]1CC[C@H]2[C@@H]3CC[C@H]4NC(=O)C=C[C@]4(C)[C@H]3CC[C@]12C [Finasteride, 17,-(N-tert-butylcarbamoyl)-3-oxo-4-aza-5 α-androst-1-ene-3-one]
- sensitivity of type 1 5α-reductase to finasteride (5α-reductase 1): relatively insensitive
- inhibition of the human prostate enzyme (5α-reductase 2; human prostate enzyme): potent inhibitor
- inhibition of type 2 5α-reductase (5α-reductase 2; isozyme predominating in the prostate): potently inhibited
